# Test results reported in patent US20260216328A1, “DISRUPTABLE LINKER COMPOSITIONS, SWITCHABLE BISPECIFIC T CELL NANOENGAGER (SWITCH-BITE) COMPOSITIONS COMPRISING THE SAME, AND METHODS OF USE THEREOF” (The Trustees of the University of Pennsylvania, priority 2023, published 2026).
# Tests used:
# [1] = test system: E0771-HER2 cells and primary mouse T cells; test: T cell-tumour cell engagement by confocal microscopy; format: cell-based
# Experimental: E0771-HER2 cells were labeled with CSFE-green and primary T cells were labelled with CFSE-red. The two cells were co-cultured and then treated with PBS or SiTE for 2 h. After that, the cells were observed by confocal imaging. T cell to T cell interactions and T cell to tumour cell interactions were counted manually by taking 10 images for quantification.
# After synthesis and characterization of the AMD-responsive SiTE, the ability of SiTE to induce tumour cell-T cell engagement and tumour cell lysis was tested (FIG. 11A). E0771-HER2 cells were incubated with primary mouse T cells at a 1:1 ratio. Cells were then treated with SiTEs at varying concentrations for 4 h and observed under confocal laser scanning microscopy (CLSM) (FIG. 11B). In the untreated control group, cancer cells and T cells were randomly distributed with few T cells and cancer cells engaged. However, in groups receiving 5 ng/mL of SiTE, ~10% of T cells were engaged with tumour cells, and this rate increased to ~90% when cells were treated with 20 ng/mL of SiTE. […] To ensure the specificity of this engagement. […] Since the SiTE contains >20 Fabs, it is possible that it may induce T cell-to-T cell engagement and induce cytokine release. […] After 24 h, mouse blood was collected and the T cell crosslinking levels and IL-6 and TNF-α levels were measured. […]
# [2] = test system: Raji-Luc-GFP tumour cells; conditions: AMD treatment group after SiTE
# Experimental: FIG. 42A: NSG-SGM3 mice were treated with Busulfan at day −50 to remove mouse bone marrow. At day −49, 10^5 human CD34^+ fetal liver cells were i.v. injected to let the mouse develop a human immune system. 10^6 Raji-Luc-GFP tumour cells were i.v. injected at day −14. At days 1, 3, and 5, PBS or SiTE was i.v. injected (in the PBS group, only PBS was injected to tumour-bearing mice). […] FIGS. 42B-42E: mouse body weight, temperature, IL-6 levels, and mouse survival curves, respectively. n=10 mice. The red stars in FIG. 42B indicate that mice were euthanized. FIG. 42F: measurements of IL-1 in mouse blood at different time points. n=10 mice. […] Brain H&E staining (FIG. 42I) and human CD68 immunohistochemistry (FIG. 42J) images of mice at day 35. The data in FIGS. 42B-42F were plotted as mean z s.d. (n=10) from three independent experiments.
# It was also evaluated if the SiTE can help control neurotoxicity. In the clinic, neurotoxicity is usually delayed and occurs several […] after CRS onset. Tumour-bearing mice were treated with SiTE at days 1, 3 and 5 (FIG. 42A). […] Rather than use a preventative strategy for treating CRS (FIGS. 40A-40M), here Tocilizumab was used to treat CRS when symptoms presented, so that it can be compared directly with the SiTE strategy. […] Studies have shown that IL-1 is the major cause of neurotoxicity.
# [3] = test system: Raji-Luc-GFP tumour cells; test: Humanized immune system mice with liver CD19 and Raji-Luc-GFP tumour; conditions: AMD i.v. at day 7 after SiTE
# [4] = Half-life, distribution and clearance of AMD in mice; format: in vivo; conditions: mouse; for half-life: blood, intravenous
compound,measurement,setting,value
"NC12CC3CC(CC(C3)C1)C2 [AMD, adamantan-1-amine]",separation of conjugated cells,[1]; 100 ng/mL AMD after 20 ng/mL SiTE for 4 h,~ 40%
same,separation of conjugated cells,[1]; 1 μg/mL AMD after 20 ng/mL SiTE for 4 h,~100%
same,animal survival,[2],prolonged animal survival
same,liver enzyme and cytokine levels in blood,[3],greatly decrease the liver enzyme levels and cytokine levels in blood
same,half-life,[4]; AMD dispersed in 5% polyoxyethylene castor oil,~24 h
same,half-life,[4]; AMD dispersed in PBS,~9 h
same,clearance,[4]; in vivo,cleared from the urine
